Assay: Toxicity test in normal, noncancerous mice
Type: in vivo
Experimental: Ten normal, noncancerous mice were injected with D-threo-PDMP daily for 10 days, then killed 5 hours later with the results set forth in Table 4.
The preceding experiment was repeated in order to observe less evancescent responses: the mice were killed 40 hours after the last injection following 12 daily injections. Here, of the absolute weights, only the kidneys were statistically different in treated mice, 11% smaller (p less than 0.05%). Comparing the 40 hour and 5 hour experiments it seems likely that the liver weights renormalized faster than the kidneys, perhaps a reflection of faster glucolipid turnover.
This failure to harm the bone marrow and related systems compares favorably with the high toxicity of many antineoplastics.

[1] = 100 mg/kg/day, 10 injections, killed 5 hours later

## CCCCCCCCCC(=O)N[C@H](CN1CCOCC1)[C@H](O)c1ccccc1 [D-threo-PDMP, 1-Phenyl-2-Decanoylamino-3-Morpholino-1-Propanol]
100 mg/kg/day, 10 injections, controls gained 4.5 g
  Average body weight gain of treated mice: 2.1 g
[1]
  Body weight smaller than controls: 8%
  Brain Weight: 0.444 g
  Brain Weight (% of body): 1.67 % of body
  Kidney Weight: 0.329 g
  Kidney Weight (% of body): 1.24 % of body
  Kidney weight smaller than controls: 17%
  Liver Weight: 1.32 g
  Liver Weight (% of body): 4.97 % of body
  Liver weight smaller than controls: 18%
  Spleen Weight: 0.095 g
  Spleen Weight (% of body): 0.36 % of body
  Spleen size compared with controls: slightly but not significantly smaller
100 mg/kg/day, 10 injections, killed 5 hours later, initial mean 24.4 g
  Body Weight: 26.5 g
100 mg/kg/day, 10 injections, killed 5 hours later, p less than 0.025
  Brain weight smaller than controls: 4.6%
12 daily injections
  Cell counts on orbital blood (RBC, WBC, differential monocytes, lymphocytes, eosinophiles, neutrophils): no abnormalities
12 daily injections, killed 40 hours after the last injection
  Kidney weight (absolute) smaller than controls: 11%

From patent US5041441A, “Method of chemotherapy using 1-phenyl-2-decanoylamino-3-morpholino-1-propanol” (The Regents of the University of Michigan, priority 1988, dated 1991)
